For series [1] the following is noted: in vivo; cited from earlier work.
Series [2] deals with Primary human AEC2s. Kind of series: AEC2 proliferation assay (Ki67 high content imaging). The class given is cell-based. As to conditions: Homo sapiens. How it is done: To identify small molecules capable of proliferating AEC2s, as disclosed herein, we first established a culture system with primary human small airway epithelial cells (SAECs) from a commercial source.
AEC2 proliferation assay. Primary human AEC2s were plated at a density of 1,500 cells per well in black 384-well plates (Greiner) coated with 10 ug/mL. Laminin (Life Technologies) in 50 μL of Small Airway Epithelial Cell Growth Medium (Lonza) without EGF, retinoic acid and with 5% BPE. 100 nL of compound dissolved in DMSO was then delivered using a Biomek FX instrument (Beckman Coulter) fitted with a pintool head (V&P Scientific).

Series [3] in a line: IT pharmacokinetics of dutogliptin (1) and dutogliptin boronate (15). As to conditions: mouse, in vivo. It counts as in vivo, mouse. How it is done:
Like other […]. Dutogliptin (1) dosed IT in mice with PBS solution quickly cleared in lung (<24h. Table 8A). […] The parent drug dutogliptin was detected in plasma and lung. […] The drug was retained in the lung for over 48 h. The data clearly illustrated the unexpected lung retention ability of boronate prodrug 15.

In series [4] the test system is HbA1c. Particulars: once-a-day oral doses of 200 mg and 400 mg; cited from earlier work.
[5] abbreviates: 4.4 mg/kg, Lung concentration of dutogliptin, Mean.
The mark [6] stands for this setting: 4.4 mg/kg, Lung concentration of dutogliptin, individual animals.

Like-named read-outs stand apart in the source and are kept apart here.

For `Cc1cc(N2CCN([C@@H]3CN[C@H](C(=O)N4CCSC4)C3)CC2)n(-c2ccccc2)n1` [Cpd 8, ((2S,4S)-4-(4-(3-methyl-1-phenyl-1H-pyrazol-5-yl)piperazin-1-yl)pyrrolidin-2-yl)(thiazolidin-3-yl)methanone], the “Adverse Events” value in series [1] is listed as 160 mg/day cardiac safety.

`O=C(CN[C@@H]1CCNC1)N1CCC[C@H]1B(O)O` [Cpd 1, ((R)-1-(((R)-pyrrolidin-3-yl)glycyl)pyrrolidin-2-yl)boronic acid]: the EC50 in series [2] (Table 4, promotion of AEC2 proliferation, read-out: AEC2 EC50) was found to be 280 nM; in series [2] (Table 5, read-out: AEC2 proliferation), 280 nM. Besides, the “time to clearance from lung” value in series [3] was under 24 h. Also, the concentration at 3 h in series [3] (4.4 mg/kg, Bronchoalveolar lavage fluids concentration of dutogliptin, Mean) amounted to 309 ng/mL; in series [3] (4.4 mg/kg, Bronchoalveolar lavage fluids concentration of dutogliptin, individual animals), 400 ng/mL; in series [3] (setting [5]) it was 6550 ng/g; in series [3] (setting [6]) it was 6800 ng/g. Further, the concentration at 7 h came to 4560 ng/g in series [3] (setting [5]) and 3800 ng/g in series [3] (setting [6]). The concentration at 24 h in series [3] (setting [6]) is 3720 ng/g. In addition, the HbA1c versus placebo entry in series [4] is reported as “statistically reduced”.

(Values after patent publication US20240115577A1, “SMALL MOLECULE REGULATORS OF ALVEOLAR TYPE 2 CELL PROLIFERATION FOR THE TREATMENT OF PULMONARY DISEASES” (THE SCRIPPS RESEARCH INSTITUTE, priority 2021, published 2024).)
